Laboratory results from PMC2692652 (Biochemistry, 2009).

Key:
R451A M. tb PGDH = R451A M. tb PGDH (Mycobacterium tuberculosis, UniProt P9WNX3, R450A); assay type: biochemical; settings: pH 7.5
R501A M. tb PGDH [1] = target: T1, R501A M. tb PGDH (Mycobacterium tuberculosis, UniProt P9WNX3, R500A); assay type: biochemical; settings: pH 7.5
K439A M. tb PGDH [2] = target: T2, K439A M. tb PGDH (Mycobacterium tuberculosis, UniProt P9WNX3, K438A); assay type: biochemical; settings: pH 7.5
H447A M. tb PGDH [3] = target: T3, H447A M. tb PGDH (Mycobacterium tuberculosis, UniProt P9WNX3, H446A); assay type: biochemical; settings: pH 7.5
R446A M. tb PGDH [4] = target: T4, R446A M. tb PGDH (Mycobacterium tuberculosis, UniProt P9WNX3, R445A); assay type: biochemical; settings: pH 7.5
[5] = target: R446A-R501A-K439A M. tb PGDH (Mycobacterium tuberculosis, UniProt P9WNX3, K438A/R445A/R500A); assay type: biochemical; settings: pH 7.5
[6] = target: T5, R451A-R501A-K439A M. tb PGDH (Mycobacterium tuberculosis, UniProt P9WNX3, K438A/R450A/R500A); assay type: biochemical
W29F M. tb PGDH [7] = target: T6, W29F M. tb PGDH (Mycobacterium tuberculosis, UniProt P9WNX3, W28F); assay type: biochemical; settings: pH 7.5
W327F M. tb PGDH [8] = target: T7, W327F M. tb PGDH (Mycobacterium tuberculosis, UniProt P9WNX3, W326F); assay type: biochemical; settings: pH 7.5
[9] = target: T5, R451A-R501A-K439A M. tb PGDH; assay type: biochemical; settings: pH 7.5
W29F M. tb PGDH [10] = target: T6, W29F M. tb PGDH; assay type: binding; settings: pH 7.5
W327F M. tb PGDH [11] = target: T7, W327F M. tb PGDH; assay type: binding; settings: pH 7.5
[12] = target: T5, R451A-R501A-K439A M. tb PGDH; assay type: binding; settings: pH 7.5
[13] = test system: native and mutant M. tb PGDH; assay: NADH dependence of steady state activity, summary over enzymes; assay type: biochemical, Mycobacterium tuberculosis
R501A M. tb PGDH [14] = target: T1, R501A M. tb PGDH; settings: read-out: Ki, HPAP (substrate inhibition); cited from earlier work
K439A M. tb PGDH [15] = target: T2, K439A M. tb PGDH; settings: read-out: Ki, HPAP (substrate inhibition); cited from earlier work
H447A M. tb PGDH [16] = target: T3, H447A M. tb PGDH; settings: read-out: Ki, HPAP (substrate inhibition); cited from earlier work
R446A M. tb PGDH [17] = target: T4, R446A M. tb PGDH; settings: read-out: Ki, HPAP (substrate inhibition); cited from earlier work

Compound: N[C@@H](CO)C(=O)O [L-serine]
- n (Hill coefficient), serine inhibition, High Substrate (R451A M. tb PGDH): 1.7 ± 0.3
- n (Hill coefficient), serine inhibition, Peak Substrate (R451A M. tb PGDH): 1.6 ± 0.1
- n (Hill coefficient), serine inhibition, High Substrate (R501A M. tb PGDH [1]): 1.7 ± 0.1
- n (Hill coefficient), serine inhibition, Peak Substrate (R501A M. tb PGDH [1]): 1.5 ± 0.1
- n (Hill coefficient), serine inhibition, High Substrate (K439A M. tb PGDH [2]): 1.2 ± 0.1
- n (Hill coefficient), serine inhibition, Peak Substrate (K439A M. tb PGDH [2]): 1.2 ± 0.1
- n (Hill coefficient), serine inhibition, High Substrate (H447A M. tb PGDH [3]): 1.5 ± 0.1
- n (Hill coefficient), serine inhibition, Peak Substrate (H447A M. tb PGDH [3]): 1.7 ± 0.1
- n (Hill coefficient), serine inhibition, High Substrate (R446A M. tb PGDH [4]): 0.9 ± 0.1
- n (Hill coefficient), serine inhibition, Peak Substrate (R446A M. tb PGDH [4]): 1.3 ± 0.1
- n (Hill coefficient), serine inhibition, Peak Substrate [5]: 1.0 ± 0.1
- Inhibition of catalytic activity by serine [6]: unable to be inhibited

Compound: NADH
- K0.5, Activity vs NADH (W29F M. tb PGDH [7]): 99 ± 2 µM
- n (Hill coefficient), Activity vs NADH (W29F M. tb PGDH [7]): 2.2 ± 0.1
- K0.5, Activity vs NADH (W327F M. tb PGDH [8]): 89 ± 4 µM
- n (Hill coefficient), Activity vs NADH (W327F M. tb PGDH [8]): 2.0 ± 0.1
- K0.5, Activity vs NADH [9]: 83 ± 13 µM
- n (Hill coefficient), Activity vs NADH [9]: 1.5 ± 0.2
- K0.5, FRET vs NADH (W29F M. tb PGDH [10]): 1.9 ± 0.1 µM
- n (Hill coefficient), FRET vs NADH (W29F M. tb PGDH [10]): 1.2 ± 0.1
- K0.5, FRET vs NADH (W327F M. tb PGDH [11]): 3.0 ± 0.3 µM
- n (Hill coefficient), FRET vs NADH (W327F M. tb PGDH [11]): 1.7 ± 0.3
- K0.5, FRET vs NADH [12]: 3.6 ± 0.1 µM
- n (Hill coefficient), FRET vs NADH [12]: 2.3 ± 0.2
- K0.5 for NADH for activity [13]: 80 to 100 mM

Compound: hydroxypyruvic acid phosphate [HPAP]
- Ki (R501A M. tb PGDH [14]): 1020 ± 30 µM
- Ki (K439A M. tb PGDH [15]): 54 ± 4 µM
- Ki (H447A M. tb PGDH [16]): 870 ± 50 µM
- Ki (R446A M. tb PGDH [17]): 289 ± 15 µM
